Data reported in publication PMC12015462, “Prioritization of novel anti-infective stilbene derivatives by combining metabolomic data organization and a stringent 3R-infection model in a knowledge graph” (RSC Advances, 2025).
Where two headings read alike, the source gives them in different places.

Tests used:
Format in all cases: cell-based
[1] = tested on: Mycobacterium marinum; assay: Infection assay: intracellular M. marinum growth (luminescence) in D. discoideum; settings: for activity at 0.411523 µM / activity at 1.23457 µM / activity at 3.7037 µM / activity at 11.1111 µM / activity at 33.3333 µM / activity at 100 µM: 72 h; for activity at 0.411523 µM: conc 0.411522634 uM; for activity at 1.23457 µM: conc 1.234567901 uM; for activity at 3.7037 µM: conc 3.703703704 uM; for activity at 11.1111 µM: conc 11.11111111 uM; for activity at 33.3333 µM: conc 33.33333333 uM; for activity at 100 µM: conc 100 uM; for IC50: interpolated between the two concentrations closest to residual growth 0.5, top concentration 100 μM
From the text: (§1) Since fractions were not weighed individually, the injection mass was used to calculate an average mass per fraction and thus a nominal mass concentration.

[2] = tested on: Mycobacterium marinum; assay: Anti-biotic assay: M. marinum growth in broth (luminescence); settings: for activity at 0.411523 µM / activity at 1.23457 µM / activity at 3.7037 µM / activity at 11.1111 µM / activity at 33.3333 µM / activity at 100 µM: 72 h; for IC50: read-out: IC50 Mm in broth (μM)
Protocol: as §1
Plating bacteria and compounds or fractions was performed analogously to the infection assay described above. Bacteria growth was monitored with the Agilent BioTek H1 plate reader by recording luminescence at 32 °C.
The prepared plates were sealed and stored at 4 °C overnight. On the day of the experiment, nine 10 cm Petri dishes were infected (as described before) and grouped into three pools.

[3] = tested on: Dictyostelium discoideum; assay: Infection assay: growth of the host amoeba D. discoideum (fluorescence) in infection; settings: for activity at 0.411523 µM / activity at 1.23457 µM / activity at 3.7037 µM / activity at 11.1111 µM / activity at 33.3333 µM / activity at 100 µM: 72 h; for IC50: read-out: IC50 Dd in infection (μM)
From the text: as §1

[4] = vehicle control set at 1, read-out: mean normalized residual growth, Mm in infection
[5] = vehicle control set at 1, read-out: median normalized residual growth, Mm in infection
[6] = read-out: mean (normalised M. marinum growth, Mm in broth)
[7] = read-out: median (normalised M. marinum growth, Mm in broth)
[8] = read-out: mean normalized residual growth, Dd in infection
[9] = read-out: median normalized residual growth, Dd in infection

Row | Compound | activity at 0.411523 µM [1, 4] | activity at 0.411523 µM [1, 5] | activity at 1.23457 µM [1, 4] | activity at 1.23457 µM [1, 5] | activity at 3.7037 µM [1, 4] | activity at 3.7037 µM [1, 5] | activity at 11.1111 µM [1, 4] | activity at 11.1111 µM [1, 5] | activity at 33.3333 µM [1, 4] | activity at 33.3333 µM [1, 5] | activity at 100 µM [1, 4] | activity at 100 µM [1, 5] | IC50 [1] | activity at 0.411523 µM [2, 6] | activity at 1.23457 µM [2, 6] | activity at 3.7037 µM [2, 6] | activity at 11.1111 µM [2, 6] | activity at 33.3333 µM [2, 6] | activity at 100 µM [2, 6] | activity at 0.411523 µM [2, 7] | also measured
1 | Oc1ccc(C=Cc2cc(O)cc3c2C(c2cc(O)cc(O)c2)C(c2ccc(O)c4c2OC(c2ccc(O)cc2O)C4c2cc(O)cc(O)c2)O3)cc1 (single isomer, unassigned; (-)) [Compound 11, (−)-Gnetuhainin M] | 57.2% | 56.8% | 112% | 106% | 127% | 128% | 135% | 123% | 28.9% | 31.3% | -4.28% | 14.1% | 22.2 µM | 99% | 108% | 110% | 88.7% | 92.2% | 86.8% | 104% | activity at 1.23457 µM [2, 7]: 107%; activity at 3.7037 µM [2, 7]: 115%; activity at 11.1111 µM [2, 7]: 91.1%; activity at 33.3333 µM [2, 7]: 96.7%; activity at 100 µM [2, 7]: 83.5%; IC50 [2]: > 100 µM; activity at 0.411523 µM [3, 8]: 150%; activity at 1.23457 µM [3, 8]: 115%; activity at 3.7037 µM [3, 8]: 73.2%; activity at 11.1111 µM [3, 8]: 64.6%; activity at 33.3333 µM [3, 8]: 39.6%; activity at 100 µM [3, 8]: 11.1%; activity at 0.411523 µM [3, 9]: 87.9%; activity at 1.23457 µM [3, 9]: 94.4%; activity at 3.7037 µM [3, 9]: 85.9%; activity at 11.1111 µM [3, 9]: 83%; activity at 33.3333 µM [3, 9]: 90.3%; activity at 100 µM [3, 9]: 72.8%; IC50 [3]: > 100 µM
2 | Oc1ccc(/C=C/c2cc(O)c3c(c2)O[C@@H](c2ccc(O)cc2)[C@@H]3c2cc(O)c3c(c2)O[C@@H](c2ccc(O)cc2O)[C@H]3c2cc(O)cc(O)c2)cc1 [Compound 4, (−)-Gnetoline A] | 153% | 139% | 173% | 160% | 176% | 171% | 139% | 135% | 88.4% | 86.1% | 12.2% | 17.7% | 66.7 µM | 115% | 113% | 113% | 112% | 110% | 99.3% | 112% | activity at 1.23457 µM [2, 7]: 115%; activity at 3.7037 µM [2, 7]: 115%; activity at 11.1111 µM [2, 7]: 116%; activity at 33.3333 µM [2, 7]: 108%; activity at 100 µM [2, 7]: 99.5%; IC50 [2]: > 100 µM; activity at 0.411523 µM [3, 8]: 146%; activity at 1.23457 µM [3, 8]: 109%; activity at 3.7037 µM [3, 8]: 106%; activity at 11.1111 µM [3, 8]: 88.5%; activity at 33.3333 µM [3, 8]: 79%; activity at 100 µM [3, 8]: -10.4%; activity at 0.411523 µM [3, 9]: 96.5%; activity at 1.23457 µM [3, 9]: 84.4%; activity at 3.7037 µM [3, 9]: 85.1%; activity at 11.1111 µM [3, 9]: 79.5%; activity at 33.3333 µM [3, 9]: 79.5%; activity at 100 µM [3, 9]: 38.1%; IC50 [3]: 66.7 µM
3 | Oc1ccc(/C=C/c2cc(O)c3c(c2)O[C@@H](c2ccc(O)cc2)[C@@H]3c2cc(O)c3c(c2)O[C@H](c2ccc(O)cc2O)[C@H]3c2cc(O)cc(O)c2)cc1 [Compound 5, (−)-Latifolol] | 116% | 112% | 160% | 158% | 192% | 178% | 136% | 125% | 81.5% | 81.6% | 2.94% | 7.57% | 66.7 µM | 107% | 108% | 104% | 114% | 95.8% | 91% | 106% | activity at 1.23457 µM [2, 7]: 108%; activity at 3.7037 µM [2, 7]: 107%; activity at 11.1111 µM [2, 7]: 116%; activity at 33.3333 µM [2, 7]: 102%; activity at 100 µM [2, 7]: 102%; IC50 [2]: > 100 µM; activity at 0.411523 µM [3, 8]: 112%; activity at 1.23457 µM [3, 8]: 85.8%; activity at 3.7037 µM [3, 8]: 91.4%; activity at 11.1111 µM [3, 8]: 75.1%; activity at 33.3333 µM [3, 8]: 61%; activity at 100 µM [3, 8]: -3.13%; activity at 0.411523 µM [3, 9]: 93.8%; activity at 1.23457 µM [3, 9]: 81.7%; activity at 3.7037 µM [3, 9]: 79.8%; activity at 11.1111 µM [3, 9]: 74.5%; activity at 33.3333 µM [3, 9]: 69%; activity at 100 µM [3, 9]: 32.8%; IC50 [3]: 66.7 µM
